IC50 and Ki data for 16 molecules are collected here from ChEMBL document CHEMBL1909046, “DrugMatrix in vitro pharmacology data”.

The target of test [1] is Sigma non-opioid intracellular receptor 1 (Homo sapiens, UniProt Q99720). Kind of test: DRUGMATRIX: Sigma1 radioligand binding (ligand: [3H] Haloperidol). The format is cell membranes, Jurkat, Membrane. The note with it: Not Active = under 50% inhibition at 10 µM.
In test [2] the target is T1, Amine oxidase [flavin-containing] A (Homo sapiens, UniProt P21397).
T1 sequence (P21397 whole entry): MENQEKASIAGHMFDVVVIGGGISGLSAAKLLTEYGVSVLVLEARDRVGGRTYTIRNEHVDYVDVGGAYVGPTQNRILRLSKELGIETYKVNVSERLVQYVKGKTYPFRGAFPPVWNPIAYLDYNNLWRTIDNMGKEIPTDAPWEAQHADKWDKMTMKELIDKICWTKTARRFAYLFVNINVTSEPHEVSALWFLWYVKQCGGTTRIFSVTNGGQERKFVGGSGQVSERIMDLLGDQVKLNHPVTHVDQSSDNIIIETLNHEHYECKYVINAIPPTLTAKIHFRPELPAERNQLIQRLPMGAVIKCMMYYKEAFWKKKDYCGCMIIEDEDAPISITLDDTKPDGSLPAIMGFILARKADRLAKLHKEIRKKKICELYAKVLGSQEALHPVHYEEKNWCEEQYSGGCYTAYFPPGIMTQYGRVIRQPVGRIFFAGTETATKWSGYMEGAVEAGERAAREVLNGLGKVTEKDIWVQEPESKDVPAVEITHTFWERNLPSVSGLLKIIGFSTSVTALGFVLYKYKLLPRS
Kind of test: DRUGMATRIX: Monoamine Oxidase MAO-A enzyme inhibition (substrate: Kynuramine). Set-up: species or system BTI-TN-5B1-4. The note with it: bti-tn-5b1-4; Not Active = under 50% inhibition at 10 µM.

Test [3] has as its target T2, 5-hydroxytryptamine receptor 1A (Rattus norvegicus, UniProt P19327). Also: in other assays of this panel Not Active means under 50% inhibition at 10 µM.
T2 sequence (P19327 whole entry): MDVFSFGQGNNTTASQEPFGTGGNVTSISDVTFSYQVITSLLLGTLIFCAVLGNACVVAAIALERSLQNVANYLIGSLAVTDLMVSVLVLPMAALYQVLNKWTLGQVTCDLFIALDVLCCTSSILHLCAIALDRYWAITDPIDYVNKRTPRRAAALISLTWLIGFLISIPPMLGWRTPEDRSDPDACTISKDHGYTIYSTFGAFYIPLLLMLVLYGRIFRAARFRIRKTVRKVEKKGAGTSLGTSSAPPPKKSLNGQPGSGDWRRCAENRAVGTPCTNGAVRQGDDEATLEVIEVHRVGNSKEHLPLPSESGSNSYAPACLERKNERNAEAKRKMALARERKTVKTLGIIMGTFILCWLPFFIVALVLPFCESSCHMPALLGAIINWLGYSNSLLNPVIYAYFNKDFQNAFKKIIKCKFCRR
It is filed as cell membranes, Membrane. Particulars: cho-k1.

Test [4] is described as follows: DRUGMATRIX: Calcium Channel Type L, Benzothiazepine radioligand binding (ligand: [3H] Diltiazem). It is filed as cell membranes, Rattus norvegicus, Wistar, Brain, Membrane. Particulars: Not Active = under 50% inhibition at 10 µM.
A further test has as its target D(3) dopamine receptor (Homo sapiens, UniProt P35462). Kind of test: DRUGMATRIX: Dopamine D3 radioligand binding (ligand: [3H] Spiperone). The format is cell membranes, CHO, Membrane.
Test [5] has as its target 5-hydroxytryptamine receptor 4 (Cavia porcellus, UniProt O70528). The format is cell membranes, Dunkin-Hartley, Striatum, Membrane. Also: in other assays of this panel Not Active means under 50% inhibition at 10 µM.
In test [6] the target is Tyrosine-protein kinase Fyn (Homo sapiens, UniProt P06241). Kind of test: biochemical. It is filed as cell-based, Insect cells.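 Also: enzymatic inhibition of Fyn kinase activity measured with Poly(Glu:Tyr) as the phosphorylation substrate; in other assays of this panel Not Active means under 50% inhibition at 10 µM.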
The target of test [7] is cGMP-specific 3',5'-cyclic phosphodiesterase (Homo sapiens, UniProt O76074). Kind of test: DRUGMATRIX: Phosphodiesterase PDE5 enzyme inhibition (substrate: [3H]cGMP + cGMP). Particulars: platelet; Not Active = under 50% inhibition at 10 µM. It is filed as tissue-based.
A short description of test [8]: DRUGMATRIX: Nicotinic Acetylcholine radioligand binding (ligand: [125I] Epibatidine). It is filed as cell membranes, Membrane. The note with it: imr-32; Not Active = under 50% inhibition at 10 µM.

5-hydroxytryptamine receptor 4, sequence (O70528 whole entry): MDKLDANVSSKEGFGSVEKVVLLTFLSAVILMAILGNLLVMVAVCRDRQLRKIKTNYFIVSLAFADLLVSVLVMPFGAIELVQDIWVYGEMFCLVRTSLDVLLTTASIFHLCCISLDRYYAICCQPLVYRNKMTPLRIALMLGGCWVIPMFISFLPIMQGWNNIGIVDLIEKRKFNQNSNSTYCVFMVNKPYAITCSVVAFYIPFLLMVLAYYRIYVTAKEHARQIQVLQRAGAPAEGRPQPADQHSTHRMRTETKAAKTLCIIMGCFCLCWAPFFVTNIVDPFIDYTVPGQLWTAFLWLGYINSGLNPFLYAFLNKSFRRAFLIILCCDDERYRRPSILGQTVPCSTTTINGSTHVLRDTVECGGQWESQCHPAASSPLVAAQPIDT
Sigma non-opioid intracellular receptor 1, sequence (Q99720 whole entry): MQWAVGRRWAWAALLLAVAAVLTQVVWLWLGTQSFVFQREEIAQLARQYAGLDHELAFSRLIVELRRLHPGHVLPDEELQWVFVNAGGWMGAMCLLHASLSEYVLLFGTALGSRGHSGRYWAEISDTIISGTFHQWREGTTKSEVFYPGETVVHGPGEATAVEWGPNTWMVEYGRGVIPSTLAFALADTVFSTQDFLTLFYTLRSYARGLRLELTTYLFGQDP
D(3) dopamine receptor, sequence (P35462 whole entry): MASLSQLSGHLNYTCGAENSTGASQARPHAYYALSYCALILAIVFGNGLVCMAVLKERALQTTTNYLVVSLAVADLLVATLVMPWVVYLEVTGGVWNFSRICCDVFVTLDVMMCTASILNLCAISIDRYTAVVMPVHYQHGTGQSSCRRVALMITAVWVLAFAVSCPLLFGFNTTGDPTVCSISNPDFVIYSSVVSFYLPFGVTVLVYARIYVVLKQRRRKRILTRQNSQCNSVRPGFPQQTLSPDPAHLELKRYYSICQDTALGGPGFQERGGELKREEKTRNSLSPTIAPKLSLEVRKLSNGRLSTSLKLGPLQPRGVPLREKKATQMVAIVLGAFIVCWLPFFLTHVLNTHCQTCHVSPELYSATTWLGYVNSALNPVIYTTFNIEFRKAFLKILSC
Tyrosine-protein kinase Fyn, sequence (P06241 whole entry): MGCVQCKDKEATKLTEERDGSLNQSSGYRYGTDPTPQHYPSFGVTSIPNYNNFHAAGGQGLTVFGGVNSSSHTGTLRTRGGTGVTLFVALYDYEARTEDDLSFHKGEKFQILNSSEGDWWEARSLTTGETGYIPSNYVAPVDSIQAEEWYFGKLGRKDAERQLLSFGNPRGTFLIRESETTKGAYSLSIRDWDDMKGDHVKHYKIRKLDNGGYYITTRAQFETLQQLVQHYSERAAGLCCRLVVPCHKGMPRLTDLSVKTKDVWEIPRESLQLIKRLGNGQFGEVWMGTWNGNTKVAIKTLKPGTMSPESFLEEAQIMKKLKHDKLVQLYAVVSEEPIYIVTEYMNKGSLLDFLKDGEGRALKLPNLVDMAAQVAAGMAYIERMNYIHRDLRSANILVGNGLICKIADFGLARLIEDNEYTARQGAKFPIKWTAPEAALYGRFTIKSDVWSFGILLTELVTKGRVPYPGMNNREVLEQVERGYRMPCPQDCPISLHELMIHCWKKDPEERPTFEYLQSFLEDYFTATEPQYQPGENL

One may read the IC50 as the concentration at which inhibition is half-maximal. In general, Ki refers to a measure of affinity in units of concentration, obtained from inhibition or displacement. With `CC1=C(CC(=O)O)c2cc(F)ccc2/C1=C\c1ccc([S+](C)[O-])cc1` (stereo not given), the IC50 entry (in test [1] (jurkat); in [2]; in [3]; in [4]; on D(3) dopamine receptor (cho); in test [5]) was “Not Active” throughout. In addition, the IC50 result in test [6] (insect cells), in test [7] and in [8] was “Not Active” in each case. Besides, the Ki result in test [4] and in test [8] was “Not Active” in each case.

Regarding `N[C@H](CSC(=S)NCc1ccccc1)C(=O)O`, the IC50 result (in test [1] (jurkat); in test [2]; in [3]; in test [4]; on D(3) dopamine receptor (cho); in test [5]) was “Not Active” throughout. Further, the IC50 result in test [6] (insect cells), in test [7] and in [8] was “Not Active” throughout. Moreover, the Ki result in test [4] and in test [8] was “Not Active” each time.

As to `CC(=O)N[C@@H]1[C@H](Oc2c3cc4cc2Oc2ccc(cc2Cl)[C@@H](O[C@@H]2O[C@@H](CO)[C@@H](O)[C@H](O)[C@@H]2NC(C)=O)[C@@H]2NC(=O)[C@H](NC(=O)[C@@H]4NC(=O)[C@H]4NC(=O)[C@@H](Cc5ccc(c(Cl)c5)O3)NC(=O)[C@H](N)c3ccc(O)c(c3)Oc3cc(O)cc4c3)c3ccc(O)c(c3)-c3c(O[C@H]4O[C@H](CO)[C@@H](O)[C@@H](O)[C@@H]4O)cc(O)cc3[C@@H](C(=O)O)NC2=O)O[C@@H](CO)[C@@H](O)[C@@H]1O`, the half-inhibitory concentration (IC50) entry (in [1] (jurkat); in test [2]; in test [3]; in test [4]; on D(3) dopamine receptor (cho); in [5]) was “Not Active” each time. Also, the IC50 entry in test [6] (insect cells), in test [7] and in test [8] was “Not Active” each time. In addition, the Ki entry in test [4] and in test [8] was “Not Active” in each case.

`Clc1ccc2c(c1)C(N1CCNCC1)=Nc1ccccc1O2` [AMOXAPINE]: the IC50 entry in test [1] (jurkat), in [2], in [3], in test [5], in [6] (insect cells) and in [7] was “Not Active” in each case.

Consider `COc1cc2c(c(OC)c1OC)-c1ccc(OC)c(=O)cc1[C@@H](NC(C)=O)CC2` [COLCHICINE], for which the IC50 result (in [1] (jurkat); in test [2]; in [3]; on D(3) dopamine receptor (cho); in test [5]; in test [6] (insect cells)) was “Not Active” in each case. Moreover, the IC50 entry in [7] is recorded as “Not Active”.

`CN1CCC(=C2c3ccccc3C=Cc3ccccc32)CC1` [CYPROHEPTADINE]: the IC50 result in test [1] (jurkat), in [2], in test [5], in test [6] (insect cells) and in test [7] was “Not Active” throughout.

In the case of `CC/C(=C(/CC)c1ccc(O)cc1)c1ccc(O)cc1` [DIETHYLSTILBESTROL], the IC50 entry was “Not Active” in test [1] (jurkat); “Not Active” in test [2]; “Not Active” in test [3]; “Not Active” in test [5]; 14200 nM in test [6] (read-out: IC50); “Not Active” in [7].

As for `CC(=O)N1CCN(c2ccc(OCC3COC(Cn4ccnc4)(c4ccc(Cl)cc4Cl)O3)cc2)CC1` (stereo not given) [KETOCONAZOLE], the IC50 entry is “Not Active” in test [1] (jurkat); “Not Active” in [2]; “Not Active” in test [3]; 32000 nM in [4] (read-out: IC50); “Not Active” on D(3) dopamine receptor (cho); “Not Active” in test [5]. For the same molecule, the IC50 entry in test [6] (insect cells), in test [7] and in [8] was “Not Active” in each case. The results for the Ki in test [4] (read-out: Ki) and in [8] were 28500 nM and “Not Active”, respectively.

`C=CCN1CC[C@]23c4c5ccc(O)c4O[C@H]2C(=O)CC[C@@]3(O)[C@H]1C5` [NALOXONE]: the IC50 entry (in test [1] (jurkat); in [2]; in [3]; at D(3) dopamine receptor (cho); in test [5]; in test [6] (insect cells)) was “Not Active” each time. Besides, the IC50 entry in test [7] is recorded as “Not Active”.

As to `COCCOC(=O)C1=C(C)NC(C)=C(C(=O)OC(C)C)C1c1cccc([N+](=O)[O-])c1` (stereo not given) [NIMODIPINE], the IC50 entry in test [1] (jurkat) is “Not Active”; in [2], “Not Active”; in test [3], “Not Active”; in [4] (read-out: IC50) it was 2.09 nM; on D(3) dopamine receptor (cho) it was “Not Active”; in [5], “Not Active”. For the same molecule, the IC50 result in test [6] (insect cells), in test [7] and in test [8] was “Not Active” each time. In addition, the Ki in test [4] (read-out: Ki) was 1.86 nM; in [8], “Not Active”.

For `CC(C)NCC(O)COc1cccc2ccccc12` (stereo not given) [PROPRANOLOL], the IC50 in test [1] (read-out: IC50) is 2870 nM; in test [2], “Not Active”; at D(3) dopamine receptor (cho) it was “Not Active”; in test [5] it was “Not Active”; in [6] (insect cells) it was “Not Active”; in [7], “Not Active”. Moreover, the Ki in [1] (read-out: Ki) was 1210 nM.

For `COCCCOc1ccnc(C[S+]([O-])c2nc3ccccc3[nH]2)c1C` (stereo not given) [RABEPRAZOLE], the IC50 result in [1] (jurkat) was “Not Active”; in test [2], “Not Active”; in test [3] it was “Not Active”; in test [4] it was “Not Active”; at D(3) dopamine receptor (read-out: IC50), 2330 nM; in test [5], “Not Active”. The IC50 result in test [6] (insect cells), in test [7] and in test [8] was “Not Active” throughout. The inhibition constant Ki entry in test [4] was “Not Active”; on D(3) dopamine receptor (read-out: Ki) it was 790 nM; in test [8], “Not Active”.

Regarding `O=C(c1ccc(OCCN2CCCCC2)cc1)c1c(-c2ccc(O)cc2)sc2cc(O)ccc12` [RALOXIFENE], the IC50 result in [2] is “Not Active”; in test [3] it was “Not Active”; in test [5] it was “Not Active”; in test [6] (read-out: IC50) it was 3670 nM; in test [7] it was “Not Active”; in test [8], “Not Active”. The Ki was 368 nM in [4] (read-out: Ki) and “Not Active” in test [8].

For the molecule `CNC(=C[N+](=O)[O-])NCCSCc1ccc(CN(C)C)o1` [RANITIDINE], the IC50 result (in test [1] (jurkat); in test [2]; in test [3]; in test [4]; on D(3) dopamine receptor (cho); in test [5]) was “Not Active” throughout. For the same molecule, the IC50 result in [6] (insect cells), in [7] and in test [8] was “Not Active” in each case. The Ki result in test [4] and in [8] was “Not Active” in each case.

On to `CO[C@H]1/C=C/O[C@@]2(C)Oc3c(C)c(O)c4c(c3C2=O)C2=NC3(CCN(CC(C)C)CC3)NC2=C(NC(=O)/C(C)=C\C=C\[C@H](C)[C@H](O)[C@@H](C)[C@@H](O)[C@@H](C)[C@H](OC(C)=O)[C@@H]1C)C4=O` [RIFABUTIN], for which the IC50 result (in test [1] (jurkat); in test [2]; in [3]; in test [4]; at D(3) dopamine receptor (cho); in test [5]) was “Not Active” in each case. Further, the IC50 entry in test [6] (insect cells), in test [7] and in test [8] was “Not Active” each time. Besides, the Ki result in [4] and in test [8] was “Not Active” throughout.

Turning to `CC(C)(C)c1ccc(C(O)CCCN2CCC(C(O)(c3ccccc3)c3ccccc3)CC2)cc1` (stereo not given) [TERFENADINE], the IC50 result is “Not Active” in test [1] (jurkat); “Not Active” in test [2]; “Not Active” in test [3]; 226 nM in [4] (read-out: IC50); “Not Active” in [5]; 6120 nM in test [6] (read-out: IC50). Moreover, the IC50 result in [7] and in test [8] was “Not Active” throughout. Moreover, the Ki in test [4] (read-out: Ki) was 201 nM; in [8], “Not Active”.
